# Laboratory results taken from ChEMBL document CHEMBL1201862, “PubChem BioAssay data set” (2004).
# Active and inactive are the calls of the source. Cut-off read from the data, not from the text of the source, for most assays here: actives have a measured EC50 and inactives only a lower limit.
# Key:
# [1] = HPDE-C7 pancreatic duct cell viability loss – fluorescence, HTS (AID 430); format: functional, cell-based; conditions: Homo sapiens
# [2] = viability loss of HPDE-C7K cells – cell-based, fluorescence, HTS, primary screen (AID 431); format: functional; conditions: Homo sapiens
# [3] = Luminescence Cell-Based Dose Confirmation HTS to Identify Activators of 5'UTR Stem-Loop Driven Alpha-Synuclein mRNA Translation in H4 Neuroglioblastoma Cells. [Related pubchem assays: 1829 (Project Summary), 1814 (Primary HTS)]; format: functional
# [4] = Luminescence Cell-Based Dose Response HTS to Identify Activators of Luciferase Translation or Activity in H4 […] Cells. [Related pubchem assays: 1829 (Project Summary), 1814 (Primary HTS)]; format: functional
# H4 = experiment: Luminescence Cell-Based Dose Response HTS to Identify Activators of 5'UTR Stem-Loop Driven Prion Protein mRNA Translation in H4 Neuroglioblastoma Cells. [Related pubchem assays: 1829 (Project Summary), 1814 (Primary HTS)]; format: functional; conditions: Homo sapiens
# [5] = Trypanosoma cruzi growth suppression in host cells – NIH3T3 host cells, beta-gal luminescence, confirmation (AID 2044); format: functional, cell-based;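 note: intracellular parasites grown in NIH/3T3 mouse fibroblasts as host cells; luminescent beta-galactosidase reporter signal from transgenic T. cruzi replicating inside host cells; inhibitors lower the luminescence signal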
# [6] = NIH3T3 cell viability loss – ATP luminescence, mouse fibroblasts, counter-screen, dose response (AID 2010); format: functional, cell-based; conditions: NIH3T3;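 note: cells exposed to compound for about 90 hours before reading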
# cells [7] = experiment: cells
# Mucolipin-3 = biological target: T1, Mucolipin-3 (Homo sapiens, UniProt Q8TDD5); experiment: Dose response cell-based high-throughput screening assay for agonists of the transient receptor potential channel ML3 (TRPML3). [Related pubchem assays: 1526, 1424, 1448 ]; format: functional
# T1 sequence (Q8TDD5 whole entry): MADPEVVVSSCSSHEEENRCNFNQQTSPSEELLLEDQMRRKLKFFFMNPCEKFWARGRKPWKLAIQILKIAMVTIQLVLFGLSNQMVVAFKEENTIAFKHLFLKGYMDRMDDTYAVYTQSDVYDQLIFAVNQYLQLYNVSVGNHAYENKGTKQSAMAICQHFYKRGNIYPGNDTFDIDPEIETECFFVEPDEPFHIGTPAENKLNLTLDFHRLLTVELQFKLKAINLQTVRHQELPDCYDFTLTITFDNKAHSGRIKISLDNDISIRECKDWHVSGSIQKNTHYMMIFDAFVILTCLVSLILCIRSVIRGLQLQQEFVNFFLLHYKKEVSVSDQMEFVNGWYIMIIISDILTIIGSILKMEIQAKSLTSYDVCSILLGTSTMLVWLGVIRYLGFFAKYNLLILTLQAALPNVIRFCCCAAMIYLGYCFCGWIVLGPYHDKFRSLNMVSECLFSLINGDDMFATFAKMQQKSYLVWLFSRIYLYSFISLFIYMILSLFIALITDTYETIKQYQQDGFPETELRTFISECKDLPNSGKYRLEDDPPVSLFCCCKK
# Ion channel NompC = Ion channel NompC (Danio rerio, UniProt Q7T1G6); experiment: Fluorescence counterscreen assay for TRPML3 agonists: dose response cell-based high-throughput screening assay to identify agonists of the transient receptor potential channel N1 (TRPN1). [Related pubchem assays: 1526, 1424, 1448 ]; format: functional
# [8] = NIH-3T3 fibroblast cytotoxicity, dose response, cytotoxicity control, cell-based, fluorescence, Alamar Blue, secondary assay (AID 2327); format: functional;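 note: NIH-3T3 mouse fibroblasts cultured with fluconazole at 8 µg/mL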
# [9] = luciferase reporter signal suppression in cells – H4 neuroglioma cells, luminescence, dose response (AID 1990); format: functional, cell-based
# [10] = Luminescence Cell-Based Dose Response HTS to Identify Inhibitors of 5'UTR Stem-Loop Driven Prion Protein mRNA Translation in H4 Neuroglioblastoma Cells. [Related pubchem assays: 1827 (Project Summary), 1813 (Primary HTS)]; format: functional
# [11] = alpha-synuclein stem-loop luciferase translation blockers – H4 neuroglioma cells, luminescence, confirmation (AID 1988); format: functional, cell-based
# [12] = fluconazole-exposed Candida albicans growth modulators – fluorescence, retest, confirmation (AID 2467); format: functional, cell-based
# [13] = Luminescence Cell-Based Dose Response to Identify Activators of 5'UTR Stem-Loop Driven Prion Protein mRNA Translation in H4-C Neuroglioblastoma Cells. [Related pubchem assays: 1829 (Project Summary), 1814 (Primary HTS)]; format: functional
# [14] = Luminescence Cell-Based Dose Response to Identify Activators of Luciferase Translation or Activity in H4-C Neuroglioblastoma Cells. [Related pubchem assays: 1829 (Project Summary), 1814 (Primary HTS)]; format: functional
# [15] = Luminescence Cell-Based Dose Confirmation to Identify Activators of 5'UTR Stem-Loop Driven Alpha-Synuclein mRNA Translation in H4 Neuroglioblastoma Cells. [Related pubchem assays: 1829 (Project Summary), 1814 (Primary HTS)]; format: functional
# [16] = biological target: Peroxisome proliferator-activated receptor gamma/Nuclear receptor coactivator 2 (Homo sapiens, UniProt P37231); format: functional;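 note: agonist potency for raising coactivator recruitment to the receptor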
# [17] = biological target: Peroxisome proliferator-activated receptor gamma/Nuclear receptor coactivator 1 (Homo sapiens, UniProt P37231); format: functional;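 note: agonist potency as compounds enhance coactivator SRC-1 recruitment to PPARgamma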
# [18] = biological target: Peroxisome proliferator-activated receptor gamma/Nuclear receptor coactivator 3 (Homo sapiens, UniProt P37231); format: functional;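 note: agonist potency for raising coactivator recruitment to the receptor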
# cells [19] = format: functional, cell-based
# [20] = biological target: T2, Heat shock factor protein 1 (Mus musculus, UniProt P38532); experiment: decrease of HSF1-responsive luciferase luminescence – cell-based, NIH3T3, dose retest, confirmation (AID 2382); format: functional;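 note: NIH3T3 fibroblasts with HSF1-driven luciferase reporter stressed by proteasome inhibitor MG132; luminescence from HSF1-driven luciferase expression after 8 hours of MG132 stress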
# T2 sequence (P38532 whole entry): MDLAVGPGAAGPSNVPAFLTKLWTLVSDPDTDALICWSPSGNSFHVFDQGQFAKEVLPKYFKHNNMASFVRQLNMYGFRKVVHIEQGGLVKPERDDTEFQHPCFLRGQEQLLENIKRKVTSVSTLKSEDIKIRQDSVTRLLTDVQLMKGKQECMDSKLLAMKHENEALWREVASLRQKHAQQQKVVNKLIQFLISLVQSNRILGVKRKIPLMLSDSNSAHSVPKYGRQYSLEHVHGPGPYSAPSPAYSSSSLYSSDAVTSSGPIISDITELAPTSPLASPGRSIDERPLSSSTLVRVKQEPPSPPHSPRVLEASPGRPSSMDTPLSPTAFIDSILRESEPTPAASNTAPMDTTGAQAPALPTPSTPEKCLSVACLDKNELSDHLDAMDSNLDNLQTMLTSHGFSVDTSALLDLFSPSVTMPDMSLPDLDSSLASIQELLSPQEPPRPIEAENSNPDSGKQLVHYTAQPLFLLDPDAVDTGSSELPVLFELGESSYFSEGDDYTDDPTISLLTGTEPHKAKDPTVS
# cells [21] = format: functional, cell-based; remark: listed apart in the source
# [22] = blockers of HIV-1 envelope-mediated cell-cell fusion – cherry-pick, dose response (AID 652057); format: functional, cell-based
# [23] = viability loss in CEM21 cells – cell-based, CellTiter-Glo luminescence, cherry-picked, cytotoxicity control for viral fusion inhibitor project, dose response (AID 652042); format: functional;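 note: potency for signal decrease meaning cytotoxicity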
# [24] = blockers of HIV-1 ZM109 envelope-driven cell-cell fusion – HeLa effector, CEM target cells, luciferase, cherry-pick, dose response (AID 652058); format: functional, cell-based;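 note: luciferase signal from HIV-1 Env mediated cell-cell fusion of effector and target cells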
# [25] = off-target signal loss in HeLa-CEM21 co-culture – HeLa F-luc CTL cells, cherry-picked, counter-screen for HIV-1 Env fusion inhibitor project, dose response (AID 652040); format: functional, cell-based;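 note: potency for signal decrease marking cytotoxic or nonspecific inhibition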
# [26] = HIV-1 AD8 envelope cell-cell fusion blockers – cherry-pick, dose response (AID 652062); format: functional, cell-based;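 note: luciferase signal from cell-cell fusion driven by HIV-1 clade B AD8 Env; potency is for inhibitors of fusion seen as a drop in luminescence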
# Chain of Ion channel NompC (Q7T1G6 whole entry): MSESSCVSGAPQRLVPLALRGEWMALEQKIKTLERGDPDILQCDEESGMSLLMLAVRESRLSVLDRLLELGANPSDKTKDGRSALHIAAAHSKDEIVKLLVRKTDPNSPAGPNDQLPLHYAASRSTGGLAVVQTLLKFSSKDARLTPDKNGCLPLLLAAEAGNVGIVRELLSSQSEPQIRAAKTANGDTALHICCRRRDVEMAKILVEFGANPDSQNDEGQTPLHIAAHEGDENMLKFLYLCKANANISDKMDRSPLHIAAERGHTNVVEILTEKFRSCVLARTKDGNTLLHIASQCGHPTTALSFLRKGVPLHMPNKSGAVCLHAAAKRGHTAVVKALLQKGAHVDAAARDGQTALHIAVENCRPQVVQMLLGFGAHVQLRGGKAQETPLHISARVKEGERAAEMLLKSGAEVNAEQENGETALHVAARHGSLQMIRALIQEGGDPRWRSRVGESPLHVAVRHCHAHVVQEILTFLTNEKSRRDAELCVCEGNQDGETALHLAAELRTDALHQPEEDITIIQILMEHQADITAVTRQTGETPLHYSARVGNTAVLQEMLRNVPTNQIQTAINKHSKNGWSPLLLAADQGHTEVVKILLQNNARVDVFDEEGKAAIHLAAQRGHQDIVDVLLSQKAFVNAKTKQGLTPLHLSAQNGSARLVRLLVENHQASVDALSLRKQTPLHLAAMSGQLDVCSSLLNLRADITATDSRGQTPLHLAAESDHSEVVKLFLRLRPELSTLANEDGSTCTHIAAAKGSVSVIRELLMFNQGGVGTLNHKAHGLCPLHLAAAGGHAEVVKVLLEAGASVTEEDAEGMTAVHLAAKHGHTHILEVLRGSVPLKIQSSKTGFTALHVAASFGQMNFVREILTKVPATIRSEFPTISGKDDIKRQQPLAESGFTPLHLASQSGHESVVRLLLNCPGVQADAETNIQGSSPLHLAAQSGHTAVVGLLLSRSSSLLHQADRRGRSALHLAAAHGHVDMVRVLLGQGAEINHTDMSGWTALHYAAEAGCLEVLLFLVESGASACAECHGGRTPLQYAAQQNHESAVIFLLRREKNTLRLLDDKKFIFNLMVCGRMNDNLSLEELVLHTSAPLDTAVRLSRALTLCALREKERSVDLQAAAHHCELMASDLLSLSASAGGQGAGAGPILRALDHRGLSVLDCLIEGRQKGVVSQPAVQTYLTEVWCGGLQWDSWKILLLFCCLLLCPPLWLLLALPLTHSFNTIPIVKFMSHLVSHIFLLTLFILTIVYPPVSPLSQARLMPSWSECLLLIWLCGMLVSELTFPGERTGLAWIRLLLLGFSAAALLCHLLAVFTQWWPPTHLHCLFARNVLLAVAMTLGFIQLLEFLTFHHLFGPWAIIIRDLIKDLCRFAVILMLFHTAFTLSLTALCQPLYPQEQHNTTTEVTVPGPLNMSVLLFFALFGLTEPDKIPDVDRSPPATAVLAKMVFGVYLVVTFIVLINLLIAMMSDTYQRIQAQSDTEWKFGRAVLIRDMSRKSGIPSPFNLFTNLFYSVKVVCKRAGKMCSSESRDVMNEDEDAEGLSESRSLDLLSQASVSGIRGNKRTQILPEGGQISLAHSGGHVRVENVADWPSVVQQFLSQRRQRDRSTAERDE
# Chain of Peroxisome proliferator-activated receptor gamma/Nuclear receptor coactivator 2 (P37231 whole entry): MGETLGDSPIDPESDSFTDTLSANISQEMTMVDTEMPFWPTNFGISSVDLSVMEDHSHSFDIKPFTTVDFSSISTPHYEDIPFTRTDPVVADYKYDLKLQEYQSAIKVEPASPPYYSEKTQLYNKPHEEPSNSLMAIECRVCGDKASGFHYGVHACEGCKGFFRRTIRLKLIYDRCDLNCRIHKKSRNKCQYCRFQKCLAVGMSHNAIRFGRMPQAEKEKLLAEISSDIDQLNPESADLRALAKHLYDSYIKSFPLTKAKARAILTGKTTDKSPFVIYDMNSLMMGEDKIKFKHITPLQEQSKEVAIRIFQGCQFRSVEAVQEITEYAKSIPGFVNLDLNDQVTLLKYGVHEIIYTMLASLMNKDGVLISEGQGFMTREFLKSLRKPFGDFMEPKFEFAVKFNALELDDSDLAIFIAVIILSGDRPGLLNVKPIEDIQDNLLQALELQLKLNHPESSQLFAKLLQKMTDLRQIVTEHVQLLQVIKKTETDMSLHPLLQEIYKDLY
# Chain of Peroxisome proliferator-activated receptor gamma/Nuclear receptor coactivator 2 (Q15596 whole entry, further chain): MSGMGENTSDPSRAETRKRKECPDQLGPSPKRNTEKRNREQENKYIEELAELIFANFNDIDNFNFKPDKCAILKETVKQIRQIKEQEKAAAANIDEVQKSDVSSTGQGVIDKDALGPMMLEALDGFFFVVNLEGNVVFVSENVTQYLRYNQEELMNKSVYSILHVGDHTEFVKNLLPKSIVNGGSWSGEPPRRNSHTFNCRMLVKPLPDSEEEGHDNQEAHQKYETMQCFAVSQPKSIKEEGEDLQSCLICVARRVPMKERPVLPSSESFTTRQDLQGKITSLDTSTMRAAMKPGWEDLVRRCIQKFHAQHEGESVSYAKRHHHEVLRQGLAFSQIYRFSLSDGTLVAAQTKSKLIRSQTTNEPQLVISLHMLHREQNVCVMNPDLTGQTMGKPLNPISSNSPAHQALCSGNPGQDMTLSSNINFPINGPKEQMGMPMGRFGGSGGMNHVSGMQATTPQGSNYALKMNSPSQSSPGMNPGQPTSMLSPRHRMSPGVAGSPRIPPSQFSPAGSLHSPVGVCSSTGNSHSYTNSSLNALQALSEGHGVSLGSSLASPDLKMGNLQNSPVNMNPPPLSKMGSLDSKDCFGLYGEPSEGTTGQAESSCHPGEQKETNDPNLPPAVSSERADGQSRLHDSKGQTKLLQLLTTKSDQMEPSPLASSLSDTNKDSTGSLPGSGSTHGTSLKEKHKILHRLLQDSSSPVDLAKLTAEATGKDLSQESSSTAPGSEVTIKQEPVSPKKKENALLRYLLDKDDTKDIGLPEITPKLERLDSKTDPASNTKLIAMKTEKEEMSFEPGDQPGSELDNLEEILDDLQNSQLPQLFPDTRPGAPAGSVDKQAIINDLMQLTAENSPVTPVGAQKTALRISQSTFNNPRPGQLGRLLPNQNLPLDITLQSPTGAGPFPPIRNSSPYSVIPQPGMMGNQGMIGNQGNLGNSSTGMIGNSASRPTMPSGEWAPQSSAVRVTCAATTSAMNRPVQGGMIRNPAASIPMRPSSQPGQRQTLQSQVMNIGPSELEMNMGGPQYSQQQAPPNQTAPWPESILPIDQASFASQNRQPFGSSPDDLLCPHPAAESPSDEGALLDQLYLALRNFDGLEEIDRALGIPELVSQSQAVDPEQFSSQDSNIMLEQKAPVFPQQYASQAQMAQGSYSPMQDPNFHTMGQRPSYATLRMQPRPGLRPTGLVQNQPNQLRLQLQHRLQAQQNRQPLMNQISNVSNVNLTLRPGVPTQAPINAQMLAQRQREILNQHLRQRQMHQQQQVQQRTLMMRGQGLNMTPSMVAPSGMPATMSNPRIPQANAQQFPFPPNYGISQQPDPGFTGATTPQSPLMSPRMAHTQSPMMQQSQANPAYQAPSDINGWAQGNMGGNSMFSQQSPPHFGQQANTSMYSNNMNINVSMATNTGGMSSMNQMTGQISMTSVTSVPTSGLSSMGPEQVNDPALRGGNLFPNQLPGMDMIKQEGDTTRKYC
compound,measurement,setting,value
CCCS(=O)(=O)N1CCC(C(=O)NCCc2ccccc2)CC1,EC50,[1],> 20 µM (not active)
same,EC50,[2],> 20 µM (not active)
CN(C)CCN(C(=O)c1ccc2c(c1)OCCO2)c1nc2ccc(Cl)cc2s1,EC50,[3],> 120 µM (not active)
same,EC50,[4],15.6 µM (active)
same,EC50,H4,> 120 µM (not active)
same,EC50,[5],< 0.1 µM (active)
same,EC50,[6],> 60 µM (not active)
same,EC50,cells [7],0.088 µM (active)
Cc1ccc(S(=O)(=O)N2CCN(C)CC2)c(C)c1N(C)S(=O)(=O)c1ccc(Cl)cc1,EC50,Mucolipin-3,3.34 µM (active)
same,EC50,Ion channel NompC,> 29.9 µM (not active)
CCOc1ccc2c(c1)C(C)=CC(C)(C)N2S(=O)(=O)c1ccc(C)cc1,EC50,[8],> 160 µM (inactive)
same,EC50,[9],1.36 µM (active)
same,EC50,[10],0.147 µM (active)
same,EC50,[11],0.497 µM (active)
same,EC50,[12],> 38 µM (not active)
same,EC50,Mucolipin-3,> 29.9 µM (not active)
same,EC50,Ion channel NompC,> 29.9 µM (not active)
Cc1ccc(-c2csc(NC(=O)C3=COCCO3)n2)cc1C,EC50,[13],2.75 µM (active)
same,EC50,[4],< 0.1 µM (inconclusive)
same,EC50,[14],0.301 µM (active)
same,EC50,[5],0.846 µM (active)
same,EC50,[6],> 60 µM (not active)
same,EC50,[15],0.353 µM (active)
Cc1ccsc1C(=O)C1CCCN(Cc2cnn(C(C)C)c2)C1 (configuration not stated),EC50,[5],< 0.1 µM (active)
same,EC50,[6],> 60 µM (inconclusive)
same,EC50,cells [7],0.01 µM (active)
CCCCC(CC)Cn1c2nc3ccccc3nc2c2c(=N)oc(C)nc21 (configuration not stated),EC50,[16],> 79.4 µM (not active)
same,EC50,[17],> 79.4 µM (not active)
same,EC50,[18],84.3 µM (not active)
COc1ccc2cc3c(N)nn(C(=O)Cc4c[nH]c5ccccc45)c3nc2c1,EC50,[9],< 0.1 µM (active)
same,EC50,cells [19],> 350 µM (not active)
same,EC50,[10],23 µM (active)
same,EC50,[20],0.269 µM (active)
same,EC50,[11],11.5 µM (active)
same,EC50,cells [21],> 350 µM (not active)
same,AC50,[22],0.352 µM (active)
same,AC50,[23],7.5 µM (active)
same,AC50,[24],0.261 µM (active)
same,AC50,[25],0.512 µM (active)
same,AC50,[26],0.563 µM (active)
O=S(=O)(Cc1cc(Cl)nc(-c2ccccc2)n1)c1ccccc1,EC50,Mucolipin-3,5.36 µM (active)
same,EC50,Ion channel NompC,> 29.9 µM (not active)
COc1cccc(CC2(CO)CCCN(Cc3cn(C)c4ccccc34)C2)c1 (configuration not stated),EC50,[5],< 0.1 µM (active)
same,EC50,[6],20 µM (active)
same,EC50,cells [7],0.051 µM (active)
COc1ccc(N(Cc2cc3cc(OC)ccc3nc2O)S(C)(=O)=O)cc1,EC50,[1],> 20 µM (not active)
same,EC50,[2],> 20 µM (not active)
